Test results reported in patent publication US20260355318A1, “MOLECULAR MACHINES FOR TREATMENT OF CANCER, FUNGAL INFECTIONS, OR BACTERIAL INFECTIONS” (priority 2022, published 2026).

What was measured:
C. albicans [1] = assay: In vivo G. mellonella model, C. albicans infection (survival, fungal burden); set-up: species or system Galleria mellonella; conditions: C. albicans-infected G. mellonella, 1×MIC
Method: The in vivo antifungal activity of MMs was assessed in G. mellonella (Li et al., 2013; (Slater et al., 2011). G. mellonella were acquired from a commercial supplier (rainbowmealworms.net) in their final instar larval stage. Worms of similar size (~0.3 g), responsive to touch, and displaying no signs of melanization were selected. C. albicans (~10^5 CFU mL^−1) and A. fumigatus conidia (~104 conidia mL^−1) suspensions were prepared in PBS as previously described. The fungal inoculum (5 μL) was injected into the last left proleg of the worms with a Hamilton syringe. Thirty minutes after infection, MM and/or antifungal agents (1×MIC, Table 2) diluted in sterile water were injected similarly to the right proleg. […] After 30 min, worms in the irradiated treatment groups were transferred to 24-well plates (Corning-Costar Corp., Corning, NY, USA) and irradiated with 405-nm light (87.6 J cm^−2). Worms were incubated in sterile Petri dishes at 30 ° C in the dark. Live and dead worms were scored each day for 7 days. Melanized or unresponsive worms were considered dead.
Fungal load was assessed in a separate group of similarly treated worms 48 h after infection. Only healthy larvae (four worms per treatment group) with no melanization spots were used. […] After 48 h at 30 ° C (C. albicans) or 7 days at 28 ° C (A. fumigatus), colonies were counted to determine CFU per mg of larvae.

[2] = system: persister cells of A. baumannii; assay: Persister eradication, A. baumannii; type: cell-based, Acinetobacter baumannii; conditions: 1×MIC, 405 nm
[3] = Singlet oxygen generation (DPBF); conditions: irradiated
Text: Percentage of DCFH-DA-(FIG. 45E) and APF-(FIG. 45F) positive cells, as detected using flow cytometry. UV-VIS spectra of the singlet oxygen trap DPBF in the presence of the fast antibacterial motor MM 1 (FIG. 45G) or the inert slow motor ARV 3-202 (FIG. 45H). (FIG. 451) Rate of decrease of the absorption of DPBF at 410 nm, indicative of singlet oxygen generation, in the presence of MM 1 or its slow analog ARV 3-202. […] Flow cytometry data (at least 10 000 cells) was acquired in a spectral analyzer (Sony SA3800) and analyzed using FlowJo software. Results are shown as the mean of at least 3 biological replicas±standard error of the mean. Comparisons between samples were performed in GraphPad Prism 8 using a Kruskal-Wallis test for comparison between three or more samples or an unpaired t-test for comparisons between two samples. * p<0.05. not significant=n.s.

E. coli = assay: Protein carbonyl levels, E. coli; type: cell-based, Escherichia coli; conditions: 1×MIC MM 1
T. rubrum = assay: Ex vivo onychomycosis porcine nail model; set-up: species or system Trichophyton rubrum on porcine nails; key to Summary of significance, fungal load: * p<0.05; ** p<0.01; *** p<0.001; **** p<0.0001; ns: non-significant; conditions: for Mean rank diff. of fungal load: T. rubrum nails
Method: For microconidia preparation, T. rubrum was inoculated on potato dextrose agar containing 0.025% Sabouraud dextrose broth (SDB) and 1.0% penicillin-streptomycin. After a 10-day incubation at 28 ° C, the plates were flooded with PBS, which was then aspirated and filtered through a sterilized cotton gauze to recover microconidia (Ma et al., 2022).
An ex vivo onychomycosis model was established as previously described (Quatrin et al., 2020) with modifications. Pig hooves with exposed toenails were processed into ~1 cm^2-sized individual toenail samples with a band saw, washed with 70% ethyl alcohol and sterilized water, and inoculated with a microconidia suspension of T. rubrum (~10^7 conidia mL^−1) for 3 h. Samples were placed in a Petri dish containing moist sterilized paper and incubated at 28 ° C for 10 days. Fungal growth was confirmed by sample resuspension in PBS and plating on PDA containing 0.025% SDB and 1% penicillin-streptomycin. Infected samples were then treated with (1) 1% DMSO plus light, (2) monotherapy with MM 1 alone (0.77% in DMSO) plus light, (3) monotherapy with conventional antifungal (three drops (Quatrin et al., 2020) of Ciclopirox Topical Suspension USP, 0.77% “Lotion”, Leading Pharma, LLC, NY, USA, or Ciclopirox Topical Solution, 8% “Lacquer”, Perrigo New York Inc., NY, USA), or (4) combination therapy with MM 1 plus light and conventional antifungal. Each treatment group consisted of three samples. After 30 min, samples in the irradiated treatment groups were transferred to 24-well plates (Corning-Costar Corp., Corning, NY, USA) and irradiated with 405-nm light (87.6 J cm^−2). Treatment was repeated every 24 h for 5 days. Afterward, the samples were transferred to tubes containing PBS plus 1% penicillin-streptomycin, vortexed, and sonicated (Quatrin et al., 2020). Triplicate aliquots of this suspension were inoculated on PDA plates containing 1% penicillin-streptomycin. After a 10-day incubation at 28 ° C, CFU numbers were determined. Untreated samples served as positive controls.

C. albicans [4] = assay: Checkerboard interaction with conventional antifungals (FICI), C. albicans; type: cell-based, Candida albicans; conditions: for FICI: 405-nm light
Method: A modified checkerboard assay was used to study the interaction of visible-light-activated MMs with conventional antifungals in C. albicans. […] The type of interaction between MMs and conventional antifungals was assessed by calculating the fractional inhibitory concentration index (FICI), with a FICI of ≤0.5, 0.5<x≤4, or >4, denoting synergistic, additive, or antagonistic interactions, respectively (Odds, 2003).
The interaction of MMs with conventional antifungal agents in C. albicans was investigated by determining the MIC of different antifungals alone and after treatment with visible-light-activated MMs using a modified broth microdilution checkerboard assay (Cantón et al., 2005) in an 8×8-well configuration. […] The fractional inhibitory concentration index (FICI) was determined as the sum of the MIC of the MM and the antifungal drug when used in combination divided by their MIC when used alone. An FICI index of ≤0.5, 0.5<x≤4, or >4 indicates synergistic, additive, and antagonistic interactions, respectively (Odds, 2003).

C[C@@H]1Cc2ccc3ccccc3c2/C1=C1\c2ccccc2Sc2cc(NCCN(C)C)ccc21 [MM 1, N^1N^1-dimethyl-N^2-(9-(2-methyl-2,3-dihydro-1H-cyclopenta[a]naphthalen-1-ylidene)-9H-thioxanthen-3-yl) ethane-1,2-diamine]
time by which all worms died (C. albicans [1]): ≤ 3 days
time to reduce persister cells to limit of detection [2]: 3 min
singlet oxygen generation [3]: lower than that of its slow, inert counterpart
protein carbonyl levels (E. coli): not significantly changed
Summary of significance, fungal load (T. rubrum; 1% DMSO vs treatment): ** (** p<0.01)
Mean rank diff. of fungal load (T. rubrum; 1% DMSO vs treatment): 28.00
Summary of significance, fungal load (T. rubrum; CPX Lacquer vs treatment): ns
Mean rank diff. of fungal load (T. rubrum; CPX Lacquer vs treatment): 14.33
Summary of significance, fungal load (T. rubrum; CPX Lotion vs treatment): ns
Mean rank diff. of fungal load (T. rubrum; CPX Lotion vs treatment): 14.67
log reduction at 7700 µg/mL (T. rubrum; Trichophyton rubrum, topical, T. rubrum, 0.77% (w/v) MM 1 + 405-nm light, vs DMSO controls, read-out: reduction of fungal burden in porcine nails): ~2
type of interaction with conventional antifungals (C. albicans [4]): synergized with all antifungals tested
FICI (C. albicans [4]; MM 1 + ciclopirox): 0.093
FICI (C. albicans [4]; MM 1 + fluconazole): 0.500
FICI (C. albicans [4]; MM 1 + voriconazole): 0.500
